Two molecules from patent publication US20240124458A1, “POLYMORPHS OF AVAPRITINIB AND METHODS FOR PREPARING THE POLYMORPHS” (Macfarlan Smith Limted, priority 2020, published 2024) can be followed below.

The nature of the data set: Gravimetric vapour sorption (GVS) isotherm, with XRPD after analysis. The class given is physicochemical. Conditions: for water uptake (GVS isotherm plot): 25° C./90% RH; for XRPD after GVS analysis (change in form): after GVS cycles, 0-90% RH at 25° C. On the procedure:
XRPD diffractograms were collected on a Bruker D8 diffractometer using Cu Kα radiation (40 kV, 40 mA) and a θ-2θ goniometer fitted with a Ge monochromator. The incident beam passes through a 2.0 mm divergence slit followed by a 0.2 mm anti-scatter slit and knife edge. The diffracted beam passes through an 8.0 mm receiving slit with 2.5° Soller slits followed by the Lynxeye Detector. The software used for data collection and analysis was Diffrac Plus XRD Commander and Diffrac Plus EVA respectively.
Hygroscopicity of a solid material may be determined by means of gravimetric vapour sorption (GVS) analysis, sometimes known by dynamic vapour sorption (DVS) analysis.
The experiment subjects a sample material which is held in a fine wire basket on a microbalance within a temperature and humidity controlled environment (chamber). Using the software, the collected data can then be processed to determine the isotherm points at the increment ranges specified during the experiment and show the overall water uptake of the material.
Sorption isotherms were obtained using a SMS DVS Intrinsic moisture sorption analyser, controlled by DVS Intrinsic Control software. The sample temperature was maintained at 25° C. by the instrument controls. The humidity was controlled by mixing streams of dry and wet nitrogen, with a total flow rate of 200 ml/min. The relative humidity was measured by a calibrated Rotronic probe (dynamic range of 1.0-100% RH), located near the sample. The weight change, (mass relaxation) of the sample as a function of %RH was constantly monitored by a microbalance (accuracy ±0.005 mg).
Typically, 5-30 mg of sample was placed in a tared mesh stainless steel basket under ambient conditions. The sample was loaded and unloaded at 40% RH and 25° C. (typical room conditions). A moisture sorption isotherm was performed as outlined below (2 scans per complete cycle). The standard isotherm was performed at 25° C. at 10% RH intervals over a 0-90% RH range. Typically, a double cycle (4 scans) was carried out. Data analysis was carried out within Microsoft Excel using the DVS Analysis Suite.

In the case of `Cn1cc(-c2cc3c(N4CCN(c5ncc([C@@](C)(N)c6ccc(F)cc6)cn5)CC4)ncnn3c2)cn1` [avapritinib hydrate, (1S)-1-(4-fluorophenyl)-1-[2-[4-[6-(1-methylpyrazol-4-yl)pyrrolo[2,1-f][1,2,4]triazin-4-yl]piperazin-1-yl]pyrimidin-5-yl]ethanamine], the “water uptake (GVS isotherm plot)” value was “about 4.0 % w/w” and the “XRPD after GVS analysis (change in form)” value was “unchanged”.

With `Cn1cc(-c2cc3c(N4CCN(c5ncc([C@@](C)(N)c6ccc(F)cc6)cn5)CC4)ncnn3c2)cn1` [avapritinib anhydrate, (1S)-1-(4-fluorophenyl)-1-[2-[4-[6-(1-methylpyrazol-4-yl)pyrrolo[2,1-f][1,2,4]triazin-4-yl]piperazin-1-yl]pyrimidin-5-yl]ethanamine], the “water uptake (GVS isotherm plot)” value is recorded as “about 0.1 % w/w” and the “XRPD after GVS analysis (change in form)” value is listed as “unchanged”.
